Test results published in patent US20220133641A1, “TOPICAL FILM-FORMING SPRAY” (GRACE THERAPEUTICS INC., priority 2015, published 2022).
Structures can show the parent of a compound that is named as a salt.

Assays:
[1] = In-vivo study in healthy rats, drug plasma concentration after 4 sprays; conditions: rat, topical
Procedure: A total of 4 sprays were applied (two sprays on the back and two sprays on the abdominal area of the animal) using a metered dose mechanical spray pump. Blood samples were collected at 15, 30 minutes, 1, 2, 4, 8 and 24 hours. All samples were analyzed using a validated analytical LC-MS method.

[2] = Solubility study for drug saturation in spray vehicle (Example 45); type: physicochemical
Procedure: Solubility studies to find out concentration at which the drug is present at saturation levels were performed as follows: The drug (bupivacaine hydrochloride 2, 4, 8, 10,12 & 16 mg) was added to, propylene glycol, oleyl alcohol and menthol in ethanol under stirring and mixing till clear solution is formed. The film-forming polymer in the clear drug solution was added while stirring till polymer dissolves or hydrates completely.

concentration at 0 h ([1]; 8 mg strength): 1 ng/mL
concentration at 0.25 h ([1]; 8 mg strength): 82 ng/mL
concentration at 0.5 h ([1]; 8 mg strength): 119 ng/mL
concentration at 1 h ([1]; 8 mg strength): 148 ng/mL
concentration at 2 h ([1]; 8 mg strength): 95 ng/mL
concentration at 4 h ([1]; 8 mg strength): 221 ng/mL
concentration at 8 h ([1]; 8 mg strength): 147 ng/mL
concentration at 24 h ([1]; 8 mg strength): 55 ng/mL
concentration at 0 h ([1]; 12 mg strength): 0 ng/mL
concentration at 0.25 h ([1]; 12 mg strength): 73 ng/mL
concentration at 0.5 h ([1]; 12 mg strength): 109 ng/mL
concentration at 1 h ([1]; 12 mg strength): 249 ng/mL
concentration at 2 h ([1]; 12 mg strength): 180 ng/mL
concentration at 4 h ([1]; 12 mg strength): 270 ng/mL
concentration at 8 h ([1]; 12 mg strength): 329 ng/mL
concentration at 24 h ([1]; 12 mg strength): 172 ng/mL
appearance of drug solution on standing ([2]; other solutions (2, 4, 8, 10, 12 mg)): clear and no precipitate was observed
concentration at which drug saturation was achieved ([2]; propylene glycol, oleyl alcohol, menthol, ethanol, film-forming polymer): about 12 mg per spray
SMILES: CCCCN1CCCCC1C(=O)Nc1c(C)cccc1C (stereo not shown) [Bupivacaine HCl]
appearance of drug solution on standing ([2]; 16 mg of drug): precipitated out from clear solution after standing
